Patent US20070271620A1, “Animal model for type II diabetes mellitus and Syndrome X and methods and uses thereof” (priority 2005, published 2007)

Legend:
[1] = system: STZ (130 mg/kg) diabetic pigs; experiment: Two-week oral metformin treatment of STZ diabetic pigs: postprandial plasma glucose and insulin, body weight, urinary glucose excretion; type: in vivo, pig
Protocol: (§1) Protocol 5: insulin-mediated whole body glucose disposal, after a two-week placebo or metformin (twice 1.5 g per day) oral treatment period under conditions of iso-energetic feeding, was studied with the hyperinsulinemic (2 mU/kg/minute) euglycemic clamp technique in 14 STZ (130 mg/kg) diabetic pigs.
Fasting blood samples were taken before the start of hyperinsulinemic clamp experiments and postprandial blood samples were taken two to three hours after a morning meal in the week following a clamp study.
Plasma insulin concentration was measured using a Delfia assay (test kit No. B080-1101 by Perkin Elmer Life Sciences, trust by Wallac Oy, Turku, Finland). This specific pig insulin assay was validated using pig insulin standards. Plasma and urine glucose concentrations were analyzed enzymically on an autoanalyzer of Radiometer (ABL and AML, Copenhagen, Denmark). Urine was collected in buckets containing 0.5 grams Halamid-d (sodium-p-toluenesulfonchloramide, Akzo Nobel Chemicals, Amersfoort, NL) to prevent microbial breakdown of glucose. Urine volume was registered over a given interval in order to calculate the rate of urinary glucose excretion. Urine samples (0.5 mL) were stored at −20° C. for later glucose analyses. Ketones (acetoacetic acid) were determined in fresh urine by a reagent strip test (Ketostix, Bayer Diagnostics, Mijdrecht, NL).

[2] = system: STZ (130 mg/kg) diabetic pigs; experiment: Hyperinsulinemic euglycemic clamp in STZ diabetic pigs after two-week metformin treatment; type: in vivo, pig
Protocol: as §1
After overnight fasting, at t=0 minute, insulin was administered as a prime—(17 or 34 mU/kg) continuous (1 or 2 mU/kg/minute) infusion for three hours in normal pigs. Simultaneously, a variable infusion of a 33% D-glucose solution was started and adjusted every ten minutes to maintain the plasma glucose concentration at euglycemic levels and a 6,6-^2H-glucose solution was given as a prime—(216 mg) continuous (3.6 mg/minute). Steady-state conditions were achieved within 90 minutes after initiation of the hyperinsulinemic clamp and steady-state calculations were carried out during the last hour of the clamp (t=120, 135, 150, 165 and 180 minutes). In hyperglycemic diabetic pigs, insulin was given as a prime—(34 or 136 mU/kg) continuous (2 or 8 mU/kg/minute) infusion for five hours. After reaching euglycemic levels, a variable infusion of a 33% D-glucose solution was started and adjusted every ten minutes to maintain the plasma glucose concentration at euglycemia. At t=2 hours, 6,6-^2H-glucose was administered as a prime— (216 mg) continuous (3.6 mg/minute) infusion for the last three hours of the clamp in diabetic pigs. Steady-state conditions were achieved during the last hour of the clamp and steady-state calculations were carried out at (t=240, 255, 270, 285 and 300 minutes).

rodent = rodent studies, relatively high doses (100 to 500 mg/kg); cited from earlier work
[3] = metformin twice 1.5 g per day oral, two weeks
[4] = after two weeks metformin, insulin 2 mU/kg/minute

CN(C)C(=N)N=C(N)N [Metformin, metformin]
Reduction in postprandial plasma glucose compared to placebo-treated pigs ([1]; after 14 days of metformin): 30% | Postprandial plasma glucose, before treatment ([1]; metformin group, baseline): 31.0 ± 5.8 mmol/L | Postprandial plasma insulin, before treatment ([1]; metformin group, baseline): 1 ± 0 mU/L | Postprandial plasma glucose, at end of treatment [1, 3]: 24.9 ± 2.2 mmol/L | Postprandial plasma insulin, at end of treatment [1, 3]: 3 ± 1 mU/L | Fasting plasma glucose ([2]; after two weeks metformin): 14.7 ± 1.5 mmol/L | Fasting plasma insulin ([2]; after two weeks metformin): 11 ± 6 mU/L | Fasting plasma insulin, range ([2]; after two weeks metformin): range (3-37) mU/L | Increase in insulin-stimulated whole body glucose disposal compared to placebo-treated diabetic pigs ([2]; after two weeks metformin): 60% | Reduction in fasting plasma glucose compared to placebo-treated diabetic pigs ([2]; after two weeks metformin): 24% | Steady-state clamp glucose infusion rate (whole body glucose disposal) [2, 4]: 9.4 ± 2.2 mg/kg/min | Steady-state clamp plasma glucose [2, 4]: 5.3 ± 0.3 mmol/L | Steady-state clamp plasma insulin [2, 4]: 42 ± 7 mU/L | Time to reach euglycemia in diabetic pigs [2, 4]: 105 ± 28 min | Steady-state clamp glucose infusion rate (whole body glucose disposal) ([2]; after two weeks metformin, insulin 2 mU/kg/minute, listed as metformin): 9.4 mg/kg/min | Whole body glucose disposal, metformin group compared to placebo group ([2]; similar insulin stimulation): 1.6 fold | Effect on glucose homeostasis (rodent): immediate (within days) effect
